# Source: publication doi:10.1101/2020.04.24.059154v2 (biorxiv, 2021)
# Biological target: T1, AfLPMO16 (Aspergillus fumigatus, UniProt A0A7D5FGU2)
# T1 sequence (A0A7D5FGU2 20-290 limits assumed): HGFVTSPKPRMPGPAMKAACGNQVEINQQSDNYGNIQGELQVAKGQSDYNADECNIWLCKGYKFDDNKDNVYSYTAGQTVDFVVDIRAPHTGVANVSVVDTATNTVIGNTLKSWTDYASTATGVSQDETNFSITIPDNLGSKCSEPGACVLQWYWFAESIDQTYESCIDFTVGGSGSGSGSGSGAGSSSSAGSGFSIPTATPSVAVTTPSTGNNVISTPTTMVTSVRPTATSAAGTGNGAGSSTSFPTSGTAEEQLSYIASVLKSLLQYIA
# Assay: spectrophotometric 1-coerulignone formation at […] nm, Lineweaver-Burk plot
# Assay type: biochemical
# Conditions: 5 uM hydrogen peroxide as co-substrate, 100 mM phosphate buffer pH 6.0, 30 C
structure (smiles),measurement,value
"COc1cccc(OC)c1O [2,6-dimethoxyphenol]",Km,5.4 mM
